Assay results as given in article PMC10303271, “Synthesis and Receptor Binding Studies of α5 GABAAR Selective Novel Imidazodiazepines Targeted for Psychiatric and Cognitive Disorders” (Molecules, 2023).
Like-named read-outs stand apart in the source and are kept apart here.

Tests used:
Alpha1A = biological target: T1, Alpha1A (Homo sapiens, UniProt P35348); assay: PDSP primary binding Alpha1A; conditions: 1.5 h; primary binding, 10,000 nM; last figure of the line = mean of the 4 before it; read-out: Alpha1A, PDSP raw data, mean
T1 construct: purchased NIMH Psychoactive Drug Screening Program (PDSP)
T1 sequence (P35348 1-466): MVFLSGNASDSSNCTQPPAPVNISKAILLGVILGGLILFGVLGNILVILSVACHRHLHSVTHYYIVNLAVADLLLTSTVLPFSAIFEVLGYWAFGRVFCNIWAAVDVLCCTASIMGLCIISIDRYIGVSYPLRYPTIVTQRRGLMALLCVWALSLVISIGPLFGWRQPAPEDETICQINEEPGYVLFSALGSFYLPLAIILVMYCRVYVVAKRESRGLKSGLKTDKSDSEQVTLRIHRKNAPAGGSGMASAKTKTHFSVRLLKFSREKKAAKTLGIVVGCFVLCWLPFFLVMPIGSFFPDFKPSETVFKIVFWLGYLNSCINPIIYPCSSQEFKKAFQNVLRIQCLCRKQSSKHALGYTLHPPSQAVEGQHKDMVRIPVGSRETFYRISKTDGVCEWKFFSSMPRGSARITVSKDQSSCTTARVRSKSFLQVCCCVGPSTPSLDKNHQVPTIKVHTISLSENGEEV
Experimental: (§1) To determine if any off-target receptor-binding effects are present, all the novel ligands were sent to the National Institute of Mental Health (NIMH), Psychoactive Drug Screening Program (PDSP). The ligands were screened over a panel of 47 receptors, ion channels, and transporters to determine any other possible interactions with […]. The hERG-binding was also determined. […] No binding of the test compounds to calcium channels was observed. […] It is necessary to screen the compounds for hERG-binding during the early process of drug discovery. The unintentional binding of many drugs to hERG can cause blockade of hERG K+ channels in the heart, which can cause many side effects including cardiac arrhythmias and sudden death. […] All of the α5 imidazodiazepines were tested for hERG-binding.
(§2) The NIMH PDSP assay protocol book [https://kidbdev.med.unc.edu/databases/PDSP%20Protocols%20II%202013-03-28.pdf accessed on 23 April 2023]. describes the protocols for primary and secondary radio-ligand binding assays. These assays were carried out in a final volume of 125 µL per well in the appropriate binding buffer.
(§3) The binding of a ligand to a receptor, ion channel, or transporter was determined in the […] of 10 µM of the appropriate reference compound. […] Plates were incubated in the dark for 90 min at rt, and the reactions were stopped by vacuum filtration onto 0.3% polyethyleneimine (PEI) soaked 96-well filter mats using a 96-well Filtermateharvester. This was followed by three washes with cold PBS buffer. Radioactivity was then counted on a Microbeta counter. Nonlinear regression was used to analyze the data with N = 6 replicates.

Beta3 = biological target: T2, Beta3 (Homo sapiens, UniProt P13945); assay: PDSP primary binding Beta3; conditions: 1.5 h; primary binding, 10,000 nM; last figure of the line = mean of the 4 before it; read-out: Beta3, PDSP raw data, mean
T2 construct: purchased NIMH Psychoactive Drug Screening Program (PDSP)
T2 sequence (P13945 whole entry): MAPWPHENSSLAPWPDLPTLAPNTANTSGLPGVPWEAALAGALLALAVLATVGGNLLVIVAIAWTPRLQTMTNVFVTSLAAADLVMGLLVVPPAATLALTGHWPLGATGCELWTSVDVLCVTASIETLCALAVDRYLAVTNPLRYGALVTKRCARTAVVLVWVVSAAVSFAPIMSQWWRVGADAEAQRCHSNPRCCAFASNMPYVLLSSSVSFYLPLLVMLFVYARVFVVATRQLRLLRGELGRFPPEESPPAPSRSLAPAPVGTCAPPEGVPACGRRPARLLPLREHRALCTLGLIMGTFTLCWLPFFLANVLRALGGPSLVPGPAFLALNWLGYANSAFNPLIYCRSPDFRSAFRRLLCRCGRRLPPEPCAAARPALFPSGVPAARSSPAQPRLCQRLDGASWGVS
Experimental: as §1, §2, §3

M3 = biological target: T3, M3 (Homo sapiens, UniProt P20309); assay: PDSP primary binding M3; conditions: primary binding, 10,000 nM; last figure of the line = mean of the 4 before it; read-out: M3, PDSP raw data, mean
T3 construct: purchased NIMH Psychoactive Drug Screening Program (PDSP)
T3 sequence (P20309 whole entry): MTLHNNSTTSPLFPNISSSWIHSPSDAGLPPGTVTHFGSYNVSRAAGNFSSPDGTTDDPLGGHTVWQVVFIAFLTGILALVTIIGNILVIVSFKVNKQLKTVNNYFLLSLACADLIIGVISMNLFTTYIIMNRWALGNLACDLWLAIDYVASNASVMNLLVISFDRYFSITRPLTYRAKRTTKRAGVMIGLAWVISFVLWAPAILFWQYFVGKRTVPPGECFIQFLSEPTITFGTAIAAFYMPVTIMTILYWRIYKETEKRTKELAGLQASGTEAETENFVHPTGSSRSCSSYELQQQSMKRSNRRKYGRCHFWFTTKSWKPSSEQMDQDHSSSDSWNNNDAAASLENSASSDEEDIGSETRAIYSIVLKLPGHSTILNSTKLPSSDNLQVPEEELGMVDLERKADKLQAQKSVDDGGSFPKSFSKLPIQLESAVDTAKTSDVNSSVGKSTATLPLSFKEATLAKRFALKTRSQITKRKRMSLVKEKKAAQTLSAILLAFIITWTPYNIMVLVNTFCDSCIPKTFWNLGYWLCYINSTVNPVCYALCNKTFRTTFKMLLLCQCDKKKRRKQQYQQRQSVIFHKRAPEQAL
Experimental: as §1, §2, §3

Beta2 = biological target: T4, Beta2 (Homo sapiens, UniProt P07550); assay: PDSP primary binding Beta2; conditions: 1.5 h; primary binding, 10,000 nM; last figure of the line = mean of the 4 before it; read-out: Beta2, PDSP raw data, mean
T4 construct: purchased NIMH Psychoactive Drug Screening Program (PDSP)
T4 sequence (P07550 whole entry): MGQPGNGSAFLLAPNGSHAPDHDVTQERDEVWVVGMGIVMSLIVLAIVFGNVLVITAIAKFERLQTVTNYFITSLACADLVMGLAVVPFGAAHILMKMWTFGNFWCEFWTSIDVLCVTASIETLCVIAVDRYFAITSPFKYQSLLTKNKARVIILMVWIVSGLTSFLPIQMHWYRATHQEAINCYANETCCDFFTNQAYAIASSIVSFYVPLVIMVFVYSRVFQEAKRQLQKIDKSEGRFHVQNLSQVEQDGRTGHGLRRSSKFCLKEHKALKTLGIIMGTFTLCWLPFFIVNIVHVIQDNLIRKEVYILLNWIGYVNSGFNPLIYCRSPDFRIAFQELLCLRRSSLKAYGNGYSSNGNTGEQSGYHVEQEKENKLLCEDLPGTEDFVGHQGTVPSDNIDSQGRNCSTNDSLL
Experimental: as §1, §2, §3

A2A = biological target: T5, A2A (Homo sapiens, UniProt P29274); assay: PDSP primary binding A2A; conditions: primary binding, 10,000 nM; last figure of the line = mean of the 4 before it
T5 construct: purchased NIMH Psychoactive Drug Screening Program (PDSP)
T5 sequence (P29274 whole entry): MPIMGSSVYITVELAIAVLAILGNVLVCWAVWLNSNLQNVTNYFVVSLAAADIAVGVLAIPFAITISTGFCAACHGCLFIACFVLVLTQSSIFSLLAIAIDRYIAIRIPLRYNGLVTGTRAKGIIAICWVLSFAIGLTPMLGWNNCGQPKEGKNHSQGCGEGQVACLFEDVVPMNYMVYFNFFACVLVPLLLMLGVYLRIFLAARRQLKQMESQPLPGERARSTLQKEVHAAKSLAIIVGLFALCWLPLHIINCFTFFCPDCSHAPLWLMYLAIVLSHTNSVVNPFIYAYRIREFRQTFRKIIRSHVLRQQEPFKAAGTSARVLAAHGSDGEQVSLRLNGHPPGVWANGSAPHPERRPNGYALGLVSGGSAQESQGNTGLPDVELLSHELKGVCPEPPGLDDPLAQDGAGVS
Experimental: as §1, §2, §3

Sigma 1 = assay: PDSP primary binding Sigma 1; conditions: primary binding, 10,000 nM; last figure of the line = mean of the 4 before it
Experimental: as §1, §2, §3

[1] = biological target: peripheral benzodiazepine receptors (PBR) (Rattus norvegicus, UniProt P16257); assay: PDSP radioligand binding at PBR
Sequence of peripheral benzodiazepine receptors (PBR) (P16257 whole entry): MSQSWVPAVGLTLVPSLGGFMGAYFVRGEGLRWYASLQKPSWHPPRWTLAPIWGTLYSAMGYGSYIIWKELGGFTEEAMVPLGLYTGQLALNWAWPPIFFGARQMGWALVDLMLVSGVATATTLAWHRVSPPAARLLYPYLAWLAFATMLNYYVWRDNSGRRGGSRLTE
From the text: The compounds were also screened at PDSP to determine any binding with peripheral benzodiazepine receptors (PBR). A number of biological processes are associated with PBR. The most prevalent are transportation of anions for mitochondrial transmembrane potential, biosynthesis of heme, regulation of neurological damage, proliferation, cell death (apoptosis), as well as regulation of steroidogenesis. The test compounds were screened in the primary binding assay to determine the % inhibition at PBR. […] These compounds were then subjected to a secondary screening to determine the Ki (nM) value for PBR receptors.
as §2, §3

D1 = biological target: T6, D1 (Homo sapiens, UniProt P21728); assay: PDSP primary binding D1; conditions: 1.5 h; primary binding, 10,000 nM; last figure of the line = mean of the 4 before it; read-out: D1, PDSP raw data, mean
T6 construct: purchased NIMH Psychoactive Drug Screening Program (PDSP)
T6 sequence (P21728 whole entry): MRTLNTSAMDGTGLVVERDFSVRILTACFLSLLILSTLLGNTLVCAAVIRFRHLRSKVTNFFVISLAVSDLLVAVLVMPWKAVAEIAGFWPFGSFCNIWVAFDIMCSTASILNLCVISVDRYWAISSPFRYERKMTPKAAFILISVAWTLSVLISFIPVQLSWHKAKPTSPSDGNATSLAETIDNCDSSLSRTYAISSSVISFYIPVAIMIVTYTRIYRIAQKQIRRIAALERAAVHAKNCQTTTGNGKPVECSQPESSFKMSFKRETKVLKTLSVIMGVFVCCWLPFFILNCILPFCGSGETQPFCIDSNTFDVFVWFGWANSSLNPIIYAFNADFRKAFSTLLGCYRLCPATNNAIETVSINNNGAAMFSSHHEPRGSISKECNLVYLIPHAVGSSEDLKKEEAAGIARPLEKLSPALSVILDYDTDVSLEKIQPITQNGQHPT
Experimental: as §1, §2, §3

Beta1 = biological target: T7, Beta1 (Homo sapiens, UniProt P08588); assay: PDSP primary binding Beta1; conditions: 1.5 h; primary binding, 10,000 nM; last figure of the line = mean of the 4 before it; read-out: Beta1, PDSP raw data, mean
T7 construct: purchased NIMH Psychoactive Drug Screening Program (PDSP)
T7 sequence (P08588 whole entry): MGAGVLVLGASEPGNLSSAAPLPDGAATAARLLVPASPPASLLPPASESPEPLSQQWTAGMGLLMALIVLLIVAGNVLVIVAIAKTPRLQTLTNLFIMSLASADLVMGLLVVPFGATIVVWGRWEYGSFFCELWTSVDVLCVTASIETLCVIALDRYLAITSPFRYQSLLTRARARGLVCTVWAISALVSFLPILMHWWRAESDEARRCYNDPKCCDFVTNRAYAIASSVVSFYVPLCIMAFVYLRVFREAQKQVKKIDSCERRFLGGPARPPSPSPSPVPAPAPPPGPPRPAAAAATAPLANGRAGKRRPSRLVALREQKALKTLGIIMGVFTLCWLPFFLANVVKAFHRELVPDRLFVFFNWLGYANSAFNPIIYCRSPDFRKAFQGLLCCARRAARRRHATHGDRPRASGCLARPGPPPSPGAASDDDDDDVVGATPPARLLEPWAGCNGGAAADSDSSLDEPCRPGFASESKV
Experimental: as §1, §2, §3

5-HT1B = biological target: T8, 5-HT1B (Homo sapiens, UniProt P28222); assay: PDSP primary binding 5-HT1B; conditions: 1.5 h; primary binding, 10,000 nM; last figure of the line = mean of the 4 before it; read-out: 5-HT1B, PDSP raw data, mean
T8 construct: purchased NIMH Psychoactive Drug Screening Program (PDSP)
T8 sequence (P28222 whole entry): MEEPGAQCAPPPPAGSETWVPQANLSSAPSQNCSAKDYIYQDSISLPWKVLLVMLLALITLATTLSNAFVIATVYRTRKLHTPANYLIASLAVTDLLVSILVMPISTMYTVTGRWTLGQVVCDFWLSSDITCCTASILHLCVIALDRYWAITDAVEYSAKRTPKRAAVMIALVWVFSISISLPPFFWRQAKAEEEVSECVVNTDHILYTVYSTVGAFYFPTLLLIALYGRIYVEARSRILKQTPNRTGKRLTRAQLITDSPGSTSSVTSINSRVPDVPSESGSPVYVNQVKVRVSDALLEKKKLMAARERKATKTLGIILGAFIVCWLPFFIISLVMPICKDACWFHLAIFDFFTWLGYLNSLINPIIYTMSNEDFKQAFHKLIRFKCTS
Experimental: as §1, §2, §3

5-HT6 = biological target: T9, 5-HT6 (Homo sapiens, UniProt P50406); assay: PDSP primary binding 5-HT6; conditions: 1.5 h; primary binding, 10,000 nM; last figure of the line = mean of the 4 before it; read-out: 5-HT6, PDSP raw data, mean
T9 construct: purchased NIMH Psychoactive Drug Screening Program (PDSP)
T9 sequence (P50406 whole entry): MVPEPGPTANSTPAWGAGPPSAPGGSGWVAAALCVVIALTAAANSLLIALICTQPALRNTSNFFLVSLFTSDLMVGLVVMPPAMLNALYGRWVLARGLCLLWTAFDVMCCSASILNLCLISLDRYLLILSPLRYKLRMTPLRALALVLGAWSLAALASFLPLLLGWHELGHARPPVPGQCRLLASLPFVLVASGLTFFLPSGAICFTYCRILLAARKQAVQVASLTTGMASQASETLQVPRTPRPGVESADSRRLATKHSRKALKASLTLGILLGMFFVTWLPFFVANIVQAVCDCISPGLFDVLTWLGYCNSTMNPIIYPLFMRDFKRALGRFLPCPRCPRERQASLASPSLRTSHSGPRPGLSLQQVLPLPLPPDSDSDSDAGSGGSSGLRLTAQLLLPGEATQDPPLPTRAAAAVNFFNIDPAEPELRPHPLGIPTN
Experimental: as §1, §2, §3

5-HT5A = biological target: T10, 5-HT5A (Homo sapiens, UniProt P47898); assay: PDSP primary binding 5-HT5A; conditions: 1.5 h; primary binding, 10,000 nM; last figure of the line = mean of the 4 before it; read-out: 5-HT5A, PDSP raw data, mean
T10 construct: purchased NIMH Psychoactive Drug Screening Program (PDSP)
T10 sequence (P47898 whole entry): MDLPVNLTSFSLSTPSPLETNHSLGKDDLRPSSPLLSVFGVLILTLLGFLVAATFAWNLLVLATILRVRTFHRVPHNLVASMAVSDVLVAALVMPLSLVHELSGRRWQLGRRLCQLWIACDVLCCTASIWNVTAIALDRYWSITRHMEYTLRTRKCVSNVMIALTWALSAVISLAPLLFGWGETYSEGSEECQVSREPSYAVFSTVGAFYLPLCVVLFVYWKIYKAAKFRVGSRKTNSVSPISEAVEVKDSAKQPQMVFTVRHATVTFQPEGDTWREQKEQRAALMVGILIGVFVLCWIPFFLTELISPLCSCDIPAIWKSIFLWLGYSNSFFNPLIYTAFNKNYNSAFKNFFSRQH
Experimental: as §1, §2, §3

5-HT1D = biological target: T11, 5-HT1D (Homo sapiens, UniProt P28221); assay: PDSP primary binding 5-HT1D; conditions: 1.5 h; primary binding, 10,000 nM; last figure of the line = mean of the 4 before it; read-out: 5-HT1D, PDSP raw data, mean
T11 construct: purchased NIMH Psychoactive Drug Screening Program (PDSP)
T11 sequence (P28221 whole entry): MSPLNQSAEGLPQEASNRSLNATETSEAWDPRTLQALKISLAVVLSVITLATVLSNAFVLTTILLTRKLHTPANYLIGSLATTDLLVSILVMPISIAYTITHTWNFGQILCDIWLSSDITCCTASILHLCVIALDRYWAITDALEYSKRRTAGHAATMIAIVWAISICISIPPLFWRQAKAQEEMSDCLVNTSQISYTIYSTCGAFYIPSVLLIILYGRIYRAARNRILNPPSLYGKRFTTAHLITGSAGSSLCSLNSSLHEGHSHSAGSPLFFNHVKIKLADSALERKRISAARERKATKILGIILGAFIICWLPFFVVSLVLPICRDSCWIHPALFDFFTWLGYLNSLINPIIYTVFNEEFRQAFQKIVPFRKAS
Experimental: as §1, §2, §3

Ca channel human = assay: PDSP primary binding Ca channel; conditions: primary binding, 10,000 nM; last figure of the line = mean of the 4 before it
Experimental: as §1, §2, §3

[2] = 1.5 h, primary binding, 10,000 nM, last figure of the line = mean of the 4 before it, some tables list PBR twice, read-out: PBR, PDSP raw data, mean
[3] = at 10,000 nM, N = 5, read-out: Binding Affinity at PBR % Inhibition (Primary)

| SMILES | inhibition at 10 µM (Alpha1A) [%] | inhibition at 10 µM (Beta3) [%] | inhibition at 10 µM (M3) [%] | inhibition at 10 µM (Beta2) [%] | A2A, PDSP raw data, mean (A2A) [%] | Sigma 1, PDSP raw data, mean (Sigma 1) [%] | inhibition at 10 µM [1, 2] [%] | inhibition at 10 µM (D1) [%] | inhibition at 10 µM (Beta1) [%] | inhibition at 10 µM (5-HT1B) [%] | inhibition at 10 µM (5-HT6) [%] | inhibition at 10 µM (5-HT5A) [%] | inhibition at 10 µM (5-HT1D) [%] | Ca channel human, PDSP raw data, mean (Ca channel human) [%] | Ki [1] [nM] | inhibition at 10 µM [1, 3] [%] | Ki ([1]; N = 2, read-out: Binding Affinity at PBR Ki (Secondary Screen)) [nM] |
| --- | --- | --- | --- | --- | --- | --- | --- | --- | --- | --- | --- | --- | --- | --- | --- | --- | --- |
| C[C@H]1N=C(c2ccccc2F)c2cc(-c3ccccc3)ccc2-n2cnc(C(=O)N(C)C)c21 [Compound 5, (R)-6-(2′-Fluorophenyl)-N,N,4-trimethyl-8-phenyl-4H-benzo[f]imidazo[1,5-a][1,4]diazepine-3-carboxamide] | -4.47 | -19.4 | 3.03 | -0.87 | 11.57 | 46.91 | 22.3 | -35.4 | -15.8 | 11.8 | 24.6 | 53.6 | -3.41 | 39.05 |  |  |  |
| C#Cc1ccc2c(c1)C(c1ccccc1Cl)=N[C@H](C)c1c(C(=O)NC)ncn1-2 [Compound 21, (R)-6-(2′-Chlorophenyl)-8-ethynyl-N,4-dimethyl-4H-benzo[f]imidazo[1,5-a][1,4]diazepine-3-carboxamide] | -5.44 | 10.7 | -12.9 | -0.28 | -13.5 | 44.58 | 5.68 | 9.47 | 13.1 | -0.39 | -8.24 | 2.76 | -9.02 | 9.85 |  |  |  |
| C#Cc1ccc2c(c1)C(c1ccccn1)=N[C@@H](C)c1c(C(=O)NC)ncn1-2 [Compound 23, (S)-8-Ethynyl-N,4-dimethyl-6-(pyridin-2′-yl)-4H-benzo[f]imidazo[1,5-a][1,4]diazepine-3-carboxamide] | -5.28 | 0.63 | 0.11 | -5.89 | -9.74 | 43.18 | 34.9 | -37.2 | -10.8 | -3.82 | 18.1 | -2.76 | -15.1 | 14.91 |  |  |  |
| C#Cc1ccc2c(c1)C(c1ccccc1Cl)=N[C@H](C)c1c(C(=O)N(C)CC)ncn1-2 [Compound 29] | 4.97 | 9.72 | -8.9 | -7.07 | -10.24 | 35.65 | -10.9 | -31.5 | 8.7 | -3.99 | 14.9 | -3.73 | -13.1 | 22.67 |  |  |  |
| C#Cc1ccc2c(c1)C(c1ccccn1)=N[C@@H](C)c1c(C(=O)N(C)C)ncn1-2 [Compound 31, (S)-8-Ethynyl-N,N,4-trimethyl-6-(pyridin-2′-yl)-4H-benzo[f]imidazo[1,5-a][1,4]diazepine-3-carboxamide] | -10.5 | -6.68 | -13 | -0.05 | -10.83 | 27.79 | 4.44 | -41.5 | -16.2 | -0.27 | 18.1 | -7.46 | -15 | 4.19 |  |  |  |
| C#Cc1ccc2c(c1)C(c1ccccc1F)=N[C@H](C)c1c(C(=S)N(C)C)ncn1-2 [Compound 33, (R)-8-Ethynyl-6-(2′-fluorophenyl)-N,N,4-trimethyl-4H-benzo[f]imidazo[1,5-a][1,4]diazepine-3-carbothioamide] | -4.47 | -19.4 | 3.03 | -0.87 | 11.57 | 46.91 | 22.3 | -35.4 | -15.8 | 11.8 | 24.6 | 53.6 | -3.41 | 39.05 | 1710 | 66.4 ± 3.3 |  |
| CCc1noc(-c2ncn3c2[C@@H](C)N=C(c2ccccc2F)c2cc(-c4ccccc4)ccc2-3)n1 [Compound 35, (R)-3-Ethyl-5-(6-(2′-fluorophenyl)-4-methyl-8-phenyl-4H-benzo[f]imidazo[1,5-a][1,4]diazepin-3-yl)-1,2,4-oxadiazole] | 20.8 | 27.9 | 9.75 | 0.34 | 19.84 | 45.25 | 71.8 | 29.2 | 0.99 | 11.6 | 10.3 | 19.5 | 6.66 | 61.85 |  | 71.8 ± 10.5 | 1110 ± 24.5 |
| CCc1noc(-c2ncn3c2[C@@H](C)N=C(c2ccccc2F)c2cc(Cl)ccc2-3)n1 [Compound 36, (R)-5-(8-Chloro-6-(2′-fluorophenyl)-4-methyl-4H-benzo[f]imidazo[1,5-a][1,4]diazepin-3-yl)-3-ethyl-1,2,4-oxadiazole] | -0.34 | 1.76 | -3.98 | 2.67 | 1.43 | 46 | 57.2 | 42.8 | -14.7 | 3.67 | 10.8 | -1.84 | -1.16 | 16.74 | 982 ± 405 | 57.2 ± 10.3 |  |
